From US20040214784A1, “Permeable, water soluble, non-irritating prodrugs of chemotherapeutic agents with oxaalkanoic acids” (UNIVERSITY OF KENTUCKY RESEARCH FOUNDATION, priority 1999, published 2004) come the findings set out here.

SMILES strings stand for the structures. A value given as a limit tells only on which side of the number the result lay.

A short description of the first data set: physchem. The conditions noted are these: buffer, pH 7.4, Half-life of hydrolysis.
On to `COCCOCCOCC(=O)OCC(=O)[C@@]12OC(C)(C)O[C@@H]1CC1C3CCC4=CC(=O)C=CC4(C)[C@@]3(F)[C@@H](O)CC12C` (some centres unmarked), for which the half-life is 12 h. Same read-out and setting: next, `COCCOCC(=O)OCC(=O)[C@@]12OC(C)(C)O[C@@H]1CC1C3CCC4=CC(=O)C=CC4(C)[C@@]3(F)[C@@H](O)CC12C` (some centres unmarked): 15 h; `CC1(C)O[C@@H]2CC3C4CCC5=CC(=O)C=CC5(C)[C@@]4(F)[C@@H](O)CC3(C)[C@]2(C(=O)COC(=O)COCC(=O)O)O1` (some centres unmarked): 1 h.

The nature of another data set: Half-lives of hydrolysis of the prodrugs in human serum.
Details: not given
With `CC[C@@]1(OC(=O)COCC(=O)OCCN(C)C)C(=O)OCc2c1cc1n(c2=O)Cc2cc3ccccc3nc2-1`, the half-life is under 0.0167 h. Still for that read-out and setting: next, `COC(=O)COCC(=O)Oc1cc(/C=C\c2cc(OC)c(OC)c(OC)c2)ccc1OC`: 0.0417 h; `CC[C@@]1(OC(=O)COCCOCCO)C(=O)OCc2c1cc1n(c2=O)Cc2cc3ccccc3nc2-1`: 1.9 h.

The data set is the same for the next values; noted with them: Half-life of hydrolysis, Serum.
`COCCOCCOCC(=O)OCn1cc(F)c(=O)[nH]c1=O`: the half-life is 0.15 h. For `CN(C)CCOCCOC(=O)COCC(=O)O[C@H](CN1CC[C@H]2CCCC[C@H]2[C@H]1C(=O)NC(C)(C)C)[C@H](Cc1ccccc1)NC(=O)[C@H](CC(N)=O)NC(=O)c1ccc2ccccc2n1`, the half-life was 25 h. As to `CC(C)c1nc(CN(C)C(=O)N[C@H](C(=O)N[C@@H](Cc2ccccc2)C[C@H](OC(=O)COCCOCCO)[C@H](Cc2ccccc2)NC(=O)OCc2cncs2)C(C)C)cs1`, the half-life is 24 h. For the molecule `COCCOCCOCC(=O)O[C@H](CN1CC[C@H]2CCCC[C@H]2[C@H]1C(=O)NC(C)(C)C)[C@H](Cc1ccccc1)NC(=O)[C@H](CC(N)=O)NC(=O)c1ccc2ccccc2n1`, the half-life was 10 ± 1 h. For the molecule `CC(C)(C)NC(=O)[C@@H]1[C@@H]2CCCC[C@@H]2CCN1C[C@@H](OC(=O)COCC(=O)OC(C)(C)C)[C@H](Cc1ccccc1)NC(=O)[C@H](CC(N)=O)NC(=O)c1ccc2ccccc2n1`, the half-life is 20 h. As to `CC(C)(C)OC(=O)COCC(=O)Nc1ccn(C2CCC(COC(=O)COCC(=O)OC(C)(C)C)O2)c(=O)n1` (centres unmarked), the half-life was determined as 0.173 h.

`CC(C)(C)OC(=O)COCC(=O)OCCOCn1cnc2c(=O)[nH]c(N)nc21`: the half-life turned out to be 0.045 h. Regarding `COCCOCCOCC(=O)O[C@@H](C[C@H](Cc1ccccc1)NC(=O)[C@@H](NC(=O)N(C)Cc1csc(C(C)C)n1)C(C)C)[C@H](Cc1ccccc1)NC(=O)OCc1cncs1`, the half-life was over 48 h. On the same count and under the same terms, next, `COC(=O)COCC(=O)OCC1CCC(n2ccc(N)nc2=O)O1` (centres unmarked): 0.1 ± 0.00333 h. The same measure, in the same setting: next, `COCCOCC(=O)OCCOCn1cnc2c(=O)[nH]c(N)nc21`: 0.0917 h. For `COCCOCCOCC(=O)OCC(CO)OCn1cnc2c(=O)[nH]c(N)nc21` (centres unmarked), the half-life was 0.2 h. Same read-out and setting: next, `COC(=O)COCC(=O)O[C@@H](C[C@H](Cc1ccccc1)NC(=O)[C@@H](NC(=O)N(C)Cc1csc(C(C)C)n1)C(C)C)[C@H](Cc1ccccc1)NC(=O)OCc1cncs1`: 2.4 h.

Still in this data set, the particulars now being: Half-life of hydrolysis, Serum (to mono), hydrolysis to mono.
For the molecule `O=C(COCCOCCO)Nc1ccn(C2CCC(COC(=O)COCCOCCO)O2)c(=O)n1` (centres unmarked), the half-life worked out at 0.0833 ± 0.0167 h.

A short description of the next data set: Half-lives of hydrolysis of the prodrugs in phosphate buffer at pH 7.4. The following applies: pH 7.4.
As for `CC[C@@]1(OC(=O)COCC(=O)OCCN(C)C)C(=O)OCc2c1cc1n(c2=O)Cc2cc3ccccc3nc2-1`, the half-life amounted to 0.0833 h. Turning to `COC(=O)COCC(=O)Oc1cc(/C=C\c2cc(OC)c(OC)c(OC)c2)ccc1OC`, the half-life is over 48 h. Same read-out and setting: next, `CC[C@@]1(OC(=O)COCCOCCO)C(=O)OCc2c1cc1n(c2=O)Cc2cc3ccccc3nc2-1`: 30 h.

Staying with this data set, now noted: pH 7.4, Half-life of hydrolysis, Buffer (to mono), phosphate buffer at ph 7.4, hydrolysis to mono.
As to `O=C(COCCOCCO)Nc1ccn(C2CCC(COC(=O)COCCOCCO)O2)c(=O)n1` (centres unmarked), the half-life is 20 h.

Still in this data set, the particulars now being: pH 7.4, Half-life of hydrolysis, Buffer, phosphate buffer at ph 7.4.
`COCCOCCOCC(=O)OCn1cc(F)c(=O)[nH]c1=O`: the half-life came to 3.73 h. `CN(C)CCOCCOC(=O)COCC(=O)O[C@H](CN1CC[C@H]2CCCC[C@H]2[C@H]1C(=O)NC(C)(C)C)[C@H](Cc1ccccc1)NC(=O)[C@H](CC(N)=O)NC(=O)c1ccc2ccccc2n1`: the half-life was 7 h. Same read-out and setting: next, `CC(C)c1nc(CN(C)C(=O)N[C@H](C(=O)N[C@@H](Cc2ccccc2)C[C@H](OC(=O)COCCOCCO)[C@H](Cc2ccccc2)NC(=O)OCc2cncs2)C(C)C)cs1`: 96 h; `COCCOCCOCC(=O)O[C@H](CN1CC[C@H]2CCCC[C@H]2[C@H]1C(=O)NC(C)(C)C)[C@H](Cc1ccccc1)NC(=O)[C@H](CC(N)=O)NC(=O)c1ccc2ccccc2n1`: 3.5 ± 0.2 h. Turning to `CC(C)(C)NC(=O)[C@@H]1[C@@H]2CCCC[C@@H]2CCN1C[C@@H](OC(=O)COCC(=O)OC(C)(C)C)[C@H](Cc1ccccc1)NC(=O)[C@H](CC(N)=O)NC(=O)c1ccc2ccccc2n1`, the half-life was 10 h. As to `CC(C)(C)OC(=O)COCC(=O)Nc1ccn(C2CCC(COC(=O)COCC(=O)OC(C)(C)C)O2)c(=O)n1` (centres unmarked), the half-life was 6.2 h.

For `CC(C)(C)OC(=O)COCC(=O)OCCOCn1cnc2c(=O)[nH]c(N)nc21`, the half-life is 16 h. Same read-out and setting: in the case of `COCCOCCOCC(=O)O[C@@H](C[C@H](Cc1ccccc1)NC(=O)[C@@H](NC(=O)N(C)Cc1csc(C(C)C)n1)C(C)C)[C@H](Cc1ccccc1)NC(=O)OCc1cncs1` it was over 96 h; in that of `COC(=O)COCC(=O)OCC1CCC(n2ccc(N)nc2=O)O1` (centres unmarked), 10 ± 0.5 h. Still for that read-out and setting: in the case of `COCCOCC(=O)OCCOCn1cnc2c(=O)[nH]c(N)nc21` it was 30 h; in that of `COCCOCCOCC(=O)OCC(CO)OCn1cnc2c(=O)[nH]c(N)nc21` (centres unmarked), 26 h.

For `COC(=O)COCC(=O)O[C@@H](C[C@H](Cc1ccccc1)NC(=O)[C@@H](NC(=O)N(C)Cc1csc(C(C)C)n1)C(C)C)[C@H](Cc1ccccc1)NC(=O)OCc1cncs1`, the half-life is 5.5 h.
